# Laboratory results from PubChem BioAssay (NCI).
#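 Values below derive from 48-hour exposures of cells grown in 96-well plates, with endpoints linearly interpolated between the two concentrations bracketing the appropriate inhibition level. Definition used: TGI = concentration required for complete inhibition of growth.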
# Assays:
# Assay in all cases: DTP human tumour cell line panel, 48 h
# A549 NSCLC = test system: A549 NSCLC
# MDA-MB-231 breast = test system: MDA-MB-231 breast
# EKVX NSCLC = test system: EKVX NSCLC
# MALME-3M melanoma = test system: MALME-3M melanoma
# OVCAR-5 ovarian = test system: OVCAR-5 ovarian
# HL-60(TB) leukemia = test system: HL-60(TB) leukemia
# HCT-15 colon = test system: HCT-15 colon
# HCC-2998 colon = test system: HCC-2998 colon
# SK-MEL-5 melanoma = test system: SK-MEL-5 melanoma
# RPMI-8226 leukemia = test system: RPMI-8226 leukemia
# COLO 205 colon = test system: COLO 205 colon
# NCI-H522 lung = test system: NCI-H522 lung
# OVCAR-8 ovarian = test system: OVCAR-8 ovarian
# HOP-62 NSCLC = test system: HOP-62 NSCLC
# NCI-H23 lung = test system: NCI-H23 lung
# SF-268 CNS = test system: SF-268 CNS
# SNB-75 CNS = test system: SNB-75 CNS
# MOLT-4 leukemia = test system: MOLT-4 leukemia
# SN12C renal = test system: SN12C renal
# CCRF-CEM leukemia = test system: CCRF-CEM leukemia
# SNB-19 CNS = test system: SNB-19 CNS
# OVCAR-4 ovarian = test system: OVCAR-4 ovarian
# UACC-257 melanoma = test system: UACC-257 melanoma
# SK-MEL-28 melanoma = test system: SK-MEL-28 melanoma
# OVCAR-3 ovarian = test system: OVCAR-3 ovarian
# HT29 colon = test system: HT29 colon
# SR leukemia = test system: SR leukemia
# A498 renal = test system: A498 renal
# ACHN renal = test system: ACHN renal
# SF-539 CNS = test system: SF-539 CNS
# U251 CNS = test system: U251 CNS
# HS 578T breast = test system: HS 578T breast
# BT-549 breast = test system: BT-549 breast
# IGROV1 ovarian = test system: IGROV1 ovarian
# SW-620 colon = test system: SW-620 colon
# SF-295 CNS = test system: SF-295 CNS
# M14 melanoma = test system: M14 melanoma
# LOX IMVI melanoma = test system: LOX IMVI melanoma
# HOP-92 NSCLC = test system: HOP-92 NSCLC
# DU-145 prostate = test system: DU-145 prostate
# NCI/ADR-RES ovarian = test system: NCI/ADR-RES ovarian
# KM12 colon = test system: KM12 colon
# SK-MEL-2 melanoma = test system: SK-MEL-2 melanoma
# T-47D breast = test system: T-47D breast
# MCF7 breast = test system: MCF7 breast
# SK-OV-3 ovarian = test system: SK-OV-3 ovarian
# RXF 393 renal = test system: RXF 393 renal
# UACC-62 melanoma = test system: UACC-62 melanoma
# 786-0 renal = test system: 786-0 renal
# MDA-MB-435 = test system: MDA-MB-435
# CAKI-1 renal = test system: CAKI-1 renal
# PC-3 prostate = test system: PC-3 prostate
# TK-10 renal = test system: TK-10 renal
# NCI-H226 lung = test system: NCI-H226 lung
# UO-31 renal = test system: UO-31 renal
# HCT-116 colon = test system: HCT-116 colon
structure (smiles),measurement,setting,value
Cc1ccccc1N1C(N)=C(C#N)C(C#N)(C#N)C1c1ccccc1 (stereo unspecified),TGI,A549 NSCLC,62.7 µM
same,TGI,MDA-MB-231 breast,30.8 µM
same,TGI,EKVX NSCLC,42.8 µM
same,TGI,MALME-3M melanoma,32.6 µM
same,TGI,OVCAR-5 ovarian,41.5 µM
same,TGI,HL-60(TB) leukemia,44.2 µM
same,TGI,HCT-15 colon,35.9 µM
same,TGI,HCC-2998 colon,32.4 µM
same,TGI,SK-MEL-5 melanoma,30.1 µM
same,TGI,RPMI-8226 leukemia,45.2 µM
same,TGI,COLO 205 colon,33.4 µM
same,TGI,NCI-H522 lung,32.1 µM
same,TGI,OVCAR-8 ovarian,38.4 µM
same,TGI,HOP-62 NSCLC,42.5 µM
same,TGI,NCI-H23 lung,38.6 µM
same,TGI,SF-268 CNS,45.7 µM
same,TGI,SNB-75 CNS,46 µM
same,TGI,MOLT-4 leukemia,39.3 µM
same,TGI,SN12C renal,59 µM
same,TGI,CCRF-CEM leukemia,36.7 µM
same,TGI,SNB-19 CNS,41.2 µM
same,TGI,OVCAR-4 ovarian,40.9 µM
same,TGI,UACC-257 melanoma,32 µM
same,TGI,SK-MEL-28 melanoma,36.5 µM
same,TGI,OVCAR-3 ovarian,35.6 µM
same,TGI,HT29 colon,34.2 µM
same,TGI,SR leukemia,60.4 µM
same,TGI,A498 renal,33.7 µM
same,TGI,ACHN renal,35.1 µM
same,TGI,SF-539 CNS,37.9 µM
same,TGI,U251 CNS,31.9 µM
same,TGI,HS 578T breast,58 µM
same,TGI,BT-549 breast,28.8 µM
same,TGI,IGROV1 ovarian,33.9 µM
same,TGI,SW-620 colon,31.7 µM
same,TGI,SF-295 CNS,68.9 µM
same,TGI,M14 melanoma,45 µM
same,TGI,LOX IMVI melanoma,32.7 µM
same,TGI,HOP-92 NSCLC,35.9 µM
same,TGI,DU-145 prostate,30.8 µM
same,TGI,NCI/ADR-RES ovarian,42.2 µM
same,TGI,KM12 colon,32.6 µM
same,TGI,SK-MEL-2 melanoma,55.3 µM
same,TGI,T-47D breast,31 µM
same,TGI,MCF7 breast,42.6 µM
same,TGI,SK-OV-3 ovarian,86.6 µM
same,TGI,RXF 393 renal,33.9 µM
same,TGI,UACC-62 melanoma,37.7 µM
same,TGI,786-0 renal,32.3 µM
same,TGI,MDA-MB-435,35.4 µM
same,TGI,CAKI-1 renal,> 100 µM
same,TGI,PC-3 prostate,51 µM
same,TGI,TK-10 renal,28.4 µM
same,TGI,NCI-H226 lung,38.8 µM
same,TGI,UO-31 renal,31.2 µM
same,TGI,HCT-116 colon,33.6 µM
